“Also recorded” adds a separate entry of the source.
Assays:
bone marrow = assay: Histopathological analysis of bone marrow sternebrae (cellularity grade, megakaryocytes) after sublethal TBI or sham irradiation; assay type: in vivo, mice
Description: (§1) To determine the pathophysiological effects of RRx-001 on hematopoietic protection in mice, CD2F1 male mice were treated with 10 mg/kg RRx-001 or the vehicle control 24 hours prior to a sublethal dose of TBI (7 Gy at 0.6 Gy/min using High-level Cobalt-60) or sham irradiation (day 0) according to the table below.
(§2) CD2F1 male mice (n=3/group) were divided into 4 experimental groups: 1) irradiation+vehicle, 2) irradiation+RRx-001, 3) sham-irradiation+vehicle and 4) sham-irradiation+RRx-001. Either 10 mg/kg RRx-001 or the vehicle control were IP injected 24 hours prior to either irradiation or sham-irradiation (day 0). On days 2, 7, 14, 21, and 28 post-irradiation (day 0) mice were humanely euthanized. Blood, bone marrow, and sternebrae were then collected. This experiment was performed in duplicate for a total of n=6 mice/group/time point.
Sternebrae from euthanized mice (n=6/group/time point) were collected on days 2, 7, 14, 21 and 28 post-irradiation. Sternebrae were fixed in 10% zinc-buffered formalin for at least 24 hours and up to 7 days. Fixed sternebrae were decalcified for 3 hr in 12-18% sodium EDTA (pH 7.4-7.5) and specimens dehydrated using graded ethanol concentrations and embedded in paraffin. Longitudinal 4 μm sections were stained with regular hematoxylin and eosin. Two board-certified pathologist conducted histopathological evaluation of the samples. One of the pathologist scored all the samples blindly. Bone marrow was evaluated in situ within sternebrae and graded (Grade 1: <10%; Grade 2: 11-30%; Grade 3: 31-60%; Grade 4: 61-89%; Grade 5: >90%) for total cellularity. Megakaryocytes were also quantified based on the average per 10 high power fields (HPF) at 400× magnification using a BX43 or BX53 microscope (Olympus, Minneapolis, MN). Images were captured with an Olympus DP22 camera and imported into Olympus Cellsens Standard software for review.
(§3) Blood parameters were compared between treatment groups using an analysis of variance (ANOVA). The Wilcoxon test was also used for sensitivity and to potentially address data departures from normality. A longitudinal mixed model repeated measures was also implemented to provide a more complete data analysis of the sham-irradiated treatment groups' difference in overall time profile mean based on the blood parameters. Bone marrow data (megakaryocytes and grade) statistical analysis was carried out using a parametric test consisting of a general linear model analysis of variance (ANOVA with factors consisting of treatment group and pathologist) and the Kruskal-Wallis nonparametric test. The statistical data analysis was carried out using R software (Version 3.4.3, 2016) and the graphs made using GraphPad Prism version 7.03 (GraphPad Software, La Jolla, CA).
To determine the effect of RRx-001 on bone marrow, a histopathological analysis of bone marrow sternebrae was performed and the cellularity, as reported by grade (grade 1: <10%; grade 2: 11-30%; grade 3: 31-60%; grade 4: 61-89%; grade 5: ≥90% cellularity), and megakaryocyte numbers (averaged per 10 high-powered fields; HPF) were ascertained by two pathologists, one of which scored all the samples blindly (TAS, WEC).

CD2F1 male mice = assay: Complete blood count with differential and reticulocytes after sublethal TBI or sham irradiation; assay type: in vivo; conditions: 7 Gy TBI
Description: as §1, §2
Post-irradiation whole blood was obtained by terminal cardiocentesis. Blood samples were immediately transferred into EDTA tubes (Sarstedt Inc., Newton, NC) and gently rotated until the time of analysis. The tubes were analyzed for a complete blood count with differential and reticulocytes using the ADVIA 2120 (Siemens Medical Solutions Diagnostics, Dublin, Ireland), and Microsoft software version 5.9 (Microsoft Corp., Redmond, WA) to generate the data.
as §3

[1] = system: human normal bone marrow mesenchymal stem cells (hMSC); assay: Western blotting of antioxidant response element (ARE) proteins in irradiated hMSC; assay type: cell-based; conditions: 5 mM RRx-001 16 hours
Description: Antioxidant response element (ARE) genes such as heme oxygenase 1 (HO-1), NAD(P)H Dehydrogenase [Quinone] 1 (NQO-1) and Superoxide Dismutase (SOD) are involved in the detoxification and elimination of reactive oxidants.
(§4) Expression of ARE proteins was assayed in hMSC, macrophages, and monocytes following in vitro irradiation of the cells, which were pretreated with RRx-001 or vehicle. Protein expression was assayed by Western blotting and protein quantification.
(§5) hMSC were treated for 16 hours with […] RRx-001 or the vehicle control (0.05% DMSO), irradiated at 10 Gy or sham-irradiated and the protein collected 8 or 24 hours post-sham or irradiation. Human monocytic leukemic THP-1 and U937 cells were differentiated into macrophages with 50 nM Phorbol 12-myristate 13-acetate (PMA) for 24 hours before treatment. Differentiated and non-differentiated cells were treated with […] RRx-001 or 0.05% DMSO (vehicle control) for 16 hours prior to radiation. The cells were irradiated at 5 Gy or sham-irradiated and collected 4-8 hours later for both analysis. For each experiment, duplicates of each sample were run.

superoxide dismutase = assay: Superoxide dismutase activity assay in hMSC; assay type: cell-based, human; conditions: 5 mM RRx-001 16 hours; 8 hours after 10 Gy irradiation
Description: The activity of superoxide dismutase activity was also assayed in hMSC. hMSC were treated for 16 hours with […] RRx-001 or vehicle, irradiated at 10 Gy or sham-irradiated and whole cell homogenate collected according to the manufacture's protocol. The assay measures the activity of all three forms of SOD. The amount of SOD activity (U/mL) was normalized to protein levels.

U937 cells = assay: Western blotting of ARE proteins in U937 monocytes and macrophages; assay type: cell-based, human; conditions: 3 mM RRx-001 16 hours
Description: as §4, §5

THP-1 cells = assay: Western blotting of ARE proteins in THP-1 monocytes and macrophages; assay type: cell-based, human; conditions: THP-1 macrophages; 3 mM RRx-001 16 hours
Description: as §4, §5

[2] = days 2 and 21 post-irradiation, vs vehicle control

O=C(CBr)N1CC([N+](=O)[O-])([N+](=O)[O-])C1 [RRx-001, 2-bromo-1-(3,3-dinitroazetidin-1-yl)ethan-1-one]
bone marrow cellularity compared to the vehicle control (bone marrow; 7 Gy TBI, 10 mg/kg IP 24 h before, day 7): slight increase in cellularity
hematopoietic recovery by grade of bone marrow cellularity compared with control (bone marrow; 7 Gy TBI, 10 mg/kg IP 24 h before, day 14, 10 mg/kg): significantly accelerated hematopoietic recovery; also recorded: significant increase in bone marrow cellularity
number of megakaryocytes (bone marrow; 7 Gy TBI, 10 mg/kg, between days 7-28): steady increase
number of megakaryocytes (bone marrow; 7 Gy TBI, 10 mg/kg, day 2): reduced
number of megakaryocytes (bone marrow; 7 Gy TBI, 10 mg/kg, day 7): severely depleted
bone marrow cellularity grade (bone marrow; after 7 Gy TBI, 10 mg/kg IP 24 h before): 1 (grade 1: <10%)
% RETIC (CD2F1 male mice; day 14, vs control mice): significantly increased
ALC counts (CD2F1 male mice; day 14, vs controls): significantly increased
WBC counts (CD2F1 male mice; day 14, vs controls): significantly increased
% HCT (CD2F1 male mice; day 14, vs irradiated control): significantly increased
% RETIC (CD2F1 male mice; day 28, vs vehicle controls): significantly increased
absolute lymphocyte count (ALC) (CD2F1 male mice; [2]): No significant difference
absolute neutrophil count (ANC) (CD2F1 male mice; [2]): No significant difference
percent hematocrit (% HCT) (CD2F1 male mice; [2]): No significant difference
percent reticulocytes (% RETIC) (CD2F1 male mice; [2]): No significant difference
platelets (PLT) (CD2F1 male mice; [2]): No significant difference
white blood cells (WBC) (CD2F1 male mice; [2]): No significant difference
ANC (CD2F1 male mice; days 7 and 14, vs control): significantly increased
PLT (CD2F1 male mice; days 7 and 14, vs control): significantly increased
red blood cells and hemoglobin (CD2F1 male mice; irradiated RRx-001 vs irradiated vehicle group): not significantly different
white blood cells and red blood cell production (CD2F1 male mice; irradiated mice vs irradiated vehicle control): significant increase
SOD1 and 2 expression ([1]; 10 Gy irradiation, 8 hours): slight increase
HO-1 expression increase ([1]; 24 hours post-sham or irradiation): 2-3.5 fold
NQO-1 expression ([1]; all groups): slightly reduced
HO-1 expression increase ([1]; sham and 10 Gy irradiated groups, 8 hours post-sham or irradiation): 22-26 fold
Superoxide Dismutase Activity (superoxide dismutase): did not increase
NQO-1 expression (U937 cells; U937 macrophages): no change
SOD-1 expression (U937 cells; U937 macrophages): no change
HO-1 production (U937 cells; U937 macrophages, sham and irradiated groups): increased HO-1 production
HO-1 expression (U937 cells; U937 monocyte fraction): significant increase in HO-1
HO-1 expression (THP-1 cells): no significant increase in HO-1
